This is an account of results in patent US8329904B2, “Azacyclic derivatives” (Hoffmann-La Roche Inc., priority 2009, dated 2012).

Structures are written as SMILES.

The assay concerns the target T1, human HSL (Homo sapiens, UniProt Q05469).
T1 construct: overlapping PCR to generate a full length human HSL ORF with a 3′-His6 tag; His6 (C); made in house; host or cells: High 5 insect cells (baculovirus, pFast-BAC)
T1 sequence (Q05469 1-1076): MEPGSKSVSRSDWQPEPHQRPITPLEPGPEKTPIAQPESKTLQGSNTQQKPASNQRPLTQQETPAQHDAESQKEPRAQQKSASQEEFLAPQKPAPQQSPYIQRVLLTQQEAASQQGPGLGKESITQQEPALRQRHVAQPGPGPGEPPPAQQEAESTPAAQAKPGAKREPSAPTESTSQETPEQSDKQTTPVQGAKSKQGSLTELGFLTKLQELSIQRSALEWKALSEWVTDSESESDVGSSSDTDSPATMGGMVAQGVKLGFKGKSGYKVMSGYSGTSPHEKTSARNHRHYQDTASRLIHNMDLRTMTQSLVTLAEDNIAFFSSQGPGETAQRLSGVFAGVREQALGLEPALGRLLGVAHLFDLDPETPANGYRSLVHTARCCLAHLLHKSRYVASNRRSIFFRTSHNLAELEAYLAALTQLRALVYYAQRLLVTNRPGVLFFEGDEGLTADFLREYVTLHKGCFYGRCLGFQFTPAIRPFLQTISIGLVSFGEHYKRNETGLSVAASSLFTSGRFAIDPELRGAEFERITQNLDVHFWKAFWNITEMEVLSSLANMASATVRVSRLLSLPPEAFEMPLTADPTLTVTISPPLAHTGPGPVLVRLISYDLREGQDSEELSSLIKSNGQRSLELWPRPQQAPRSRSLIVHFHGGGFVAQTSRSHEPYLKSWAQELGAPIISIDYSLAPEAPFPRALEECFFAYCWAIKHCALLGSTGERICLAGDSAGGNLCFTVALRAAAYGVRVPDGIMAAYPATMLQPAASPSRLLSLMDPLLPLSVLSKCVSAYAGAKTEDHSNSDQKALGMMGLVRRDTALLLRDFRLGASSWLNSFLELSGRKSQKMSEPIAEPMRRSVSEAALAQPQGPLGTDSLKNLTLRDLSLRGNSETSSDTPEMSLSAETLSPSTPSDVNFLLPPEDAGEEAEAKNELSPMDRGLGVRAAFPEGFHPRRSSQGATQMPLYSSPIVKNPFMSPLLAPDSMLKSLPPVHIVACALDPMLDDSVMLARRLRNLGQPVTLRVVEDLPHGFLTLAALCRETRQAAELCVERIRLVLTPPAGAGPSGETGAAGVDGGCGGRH
The experiment in a line: Human Hormone-Sensitive Lipase (HSL) Enzyme Inhibition Assay. The assay is classed as biochemical. Particulars: colorimetric assay, 2,3-dimercapto-1-propanol tributyrate (DMPT) substrate, 37° C. for 20 minutes, absorbance at 405 nm; read-out: HSL hum IC50. The gist of the method: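 Colorimetric thioester hydrolysis: compounds in DMSO series mixed with DMPT (1.5 mM) in MOPS pH 7.2 with BSA, then baculovirus-expressed His6-tagged full-length human HSL added, 37° C, 20 min. DTNB plus detergents added, 15 min room temperature, absorbance at 405 nm.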
As to `O=C1N(CCc2ccc(Cl)c(Cl)c2)CCC12CCN(S(=O)(=O)c1ccccc1Cl)CC2` [Example 248, 8-(2-Chloro-benzenesulfonyl)-2-[2-(3,4-dichloro-phenyl)-ethyl]-2,8-diaza-spiro[4.5]decan-1-one], the IC50 was found to be 70 nM.

`CC(Cc1ccc(F)cc1)N1CCC2(CCN(S(=O)(=O)c3ccccc3Cl)CC2)C1=O` (centres unmarked) [Example 249, 8-(2-Chloro-benzenesulfonyl)-2-[2-(4-fluoro-phenyl)-1-methyl-ethyl]-2,8-diaza-spiro[4.5]decan-1-one]: the half-maximal inhibitory concentration (IC50) was determined as 460 nM.

Regarding `CCc1ccc(N2CCC3(CCN(S(=O)(=O)c4ccccc4Cl)CC3)C2=O)cn1` [Example 250, 8-(2-Chloro-benzenesulfonyl)-2-(6-ethyl-pyridin-3-yl)-2,8-diaza-spiro[4.5]decan-1-one], the IC50 was determined as 110 nM.

For the compound `CCCNC(=O)N1CCC2(CC1)CCN(c1ccc(OC(F)(F)F)cc1)C2=O` [Example 251, 1-Oxo-2-(4-trifluoromethoxy-phenyl)-2,8-diaza-spiro[4.5]decane-8-carboxylic acid propylamide], the half-inhibitory concentration (IC50) came to 470 nM.

As to `CCCN(C)C(=O)N1CCC2(CC1)CCN(c1ccc(CC)cc1)C2=O` [Example 252, 2-(4-Ethyl-phenyl)-1-oxo-2,8-diaza-spiro[4.5]decane-8-carboxylic acid methyl-propyl-amide], the half-inhibitory concentration (IC50) is 180 nM.

On to `CCCN(C)C(=O)N1CCC2(CC1)CCN(c1ccc(OC(F)(F)F)cc1)C2=O` [Example 253, 1-Oxo-2-(4-trifluoromethoxy-phenyl)-2,8-diaza-spiro[4.5]decane-8-carboxylic acid methyl-propyl-amide], for which the 50% inhibitory concentration (IC50) amounted to 140 nM.

As to `CC(C)NC(=O)N1CCC2(CC1)CCN(c1ccc(OC(F)(F)F)cc1)C2=O` [Example 254, 1-Oxo-2-(4-trifluoromethoxy-phenyl)-2,8-diaza-spiro[4.5]decane-8-carboxylic acid isopropylamide], the IC50 amounted to 400 nM.

With `CCc1ccc(N2CCC3(CCN(C(=O)N4CCCCC4)CC3)C2=O)cc1` [Example 255, 2-(4-Ethyl-phenyl)-8-(piperidine-1-carbonyl)-2,8-diaza-spiro[4.5]decan-1-one], the half-inhibitory concentration (IC50) was 180 nM.

As to `O=C(N1CCCCC1)N1CCC2(CC1)CCN(c1ccc(OC(F)(F)F)cc1)C2=O` [Example 256, 8-(Piperidine-1-carbonyl)-2-(4-trifluoromethoxy-phenyl)-2,8-diaza-spiro[4.5]decan-1-one], the half-maximal inhibitory concentration (IC50) turned out to be 100 nM.

On to `O=C(N1CCOCC1)N1CCC2(CC1)CCN(c1ccc(OC(F)(F)F)cc1)C2=O` [Example 257, 8-(Morpholine-4-carbonyl)-2-(4-trifluoromethoxy-phenyl)-2,8-diaza-spiro[4,5]decan-1-one], for which the IC50 was found to be 610 nM.

Take `CCc1ccc(N2CCC3(CCN(C(=O)Nc4ccc(F)cc4)CC3)C2=O)cc1` [Example 258, 2-(4-Ethyl-phenyl)-1-oxo-2,8-diaza-spiro[4.5]decane-8-carboxylic acid (4-fluoro-phenyl)-amide]: the half-maximal inhibitory concentration (IC50) came out at 400 nM.

Take `O=C(Nc1ccc(F)cc1)N1CCC2(CC1)CCN(c1ccc(OC(F)(F)F)cc1)C2=O` [Example 259, 1-Oxo-2-(4-trifluoromethoxy-phenyl)-2,8-diaza-spiro[4.5]decane-8-carboxylic acid (4-fluoro-phenyl)-amide]: the half-maximal inhibitory concentration (IC50) is 400 nM.

Turning to `CCc1ccc(N2CCC3(CCN(C(=O)NCc4ccc(F)cc4)CC3)C2=O)cc1` [Example 260, 2-(4-Ethyl-phenyl)-1-oxo-2,8-diaza-spiro[4.5]decane-8-carboxylic acid 4-fluoro-benzylamide], the half-maximal inhibitory concentration (IC50) stood at 310 nM.

As for `O=C(NCc1ccc(F)cc1)N1CCC2(CC1)CCN(c1ccc(OC(F)(F)F)cc1)C2=O` [Example 261, 1-Oxo-2-(4-trifluoromethoxy-phenyl)-2,8-diaza-spiro[4.5]decane-8-carboxylic acid 4-fluoro-benzylamide], the IC50 amounted to 190 nM.

Turning to `O=C(NCc1ccccc1Cl)N1CCC2(CC1)CCN(c1ccc(OC(F)(F)F)cc1)C2=O` [Example 262, 1-Oxo-2-(4-trifluoromethoxy-phenyl)-2,8-diaza-spiro[4.5]decane-8-carboxylic acid 2-chloro-benzylamide], the concentration for half-maximal inhibition (IC50) is 340 nM.

Turning to `CCc1ccc(N2CCC3(CCN(C(=O)NCCc4ccccc4)CC3)C2=O)cc1` [Example 263, 2-(4-Ethyl-phenyl)-1-oxo-2,8-diaza-spiro[4.5]decane-8-carboxylic acid phenethyl-amide], the IC50 worked out at 160 nM.

With `O=C(NCCc1ccccc1)N1CCC2(CC1)CCN(c1ccc(OC(F)(F)F)cc1)C2=O` [Example 264, 1-Oxo-2-(4-trifluoromethoxy-phenyl)-2,8-diaza-spiro[4.5]decane-8-carboxylic acid phenethyl-amide], the 50% inhibitory concentration (IC50) was 140 nM.

As for `O=C(N1CCCC1)N1CCC2(CC1)CCN(c1ccc(OC(F)(F)F)cc1)C2=O` [Example 265, 8-(Pyrrolidine-1-carbonyl)-2-(4-trifluoromethoxy-phenyl)-2,8-diaza-spiro[4.5]decan-1-one], the IC50 came out at 200 nM.

For the compound `CCN(CC)C(=O)N1CCC2(CC1)CCN(c1ccc(OC(F)(F)F)cc1)C2=O` [Example 266, 1-Oxo-2-(4-trifluoromethoxy-phenyl)-2,8-diaza-spiro[4.5]decane-8-carboxylic acid diethylamide], the IC50 stood at 330 nM.

In the case of `CC1CCCN1C(=O)N1CCC2(CC1)CCN(c1ccc(OC(F)(F)F)cc1)C2=O` (centres unmarked) [Example 267, 8-(2-Methyl-pyrrolidine-1-carbonyl)-2-(4-trifluoromethoxy-phenyl)-2,8-diaza-spiro[4.5]decan-1-one], the IC50 turned out to be 150 nM.

As to `CCCN(CC)C(=O)N1CCC2(CC1)CCN(c1ccc(OC(F)(F)F)cc1)C2=O` [Example 268, 1-Oxo-2-(4-trifluoromethoxy-phenyl)-2,8-diaza-spiro[4.5]decane-8-carboxylic acid ethyl-propyl-amide], the half-maximal inhibitory concentration (IC50) is 220 nM.

Take `CCCCN(C)C(=O)N1CCC2(CC1)CCN(c1ccc(OC(F)(F)F)cc1)C2=O` [Example 269, 1-Oxo-2-(4-trifluoromethoxy-phenyl)-2,8-diaza-spiro[4.5]decane-8-carboxylic acid butyl-methyl-amide]: the concentration for half-maximal inhibition (IC50) worked out at 70 nM.

Turning to `CC(C)CN(C)C(=O)N1CCC2(CC1)CCN(c1ccc(OC(F)(F)F)cc1)C2=O` [Example 270, 1-Oxo-2-(4-trifluoromethoxy-phenyl)-2,8-diaza-spiro[4.5]decane-8-carboxylic acid isobutyl-methyl-amide], the IC50 stood at 70 nM.

As to `O=C(N1CCCCCC1)N1CCC2(CC1)CCN(c1ccc(OC(F)(F)F)cc1)C2=O` [Example 271, 8-(Azepane-1-carbonyl)-2-(4-trifluoromethoxy-phenyl)-2,8-diaza-spiro[4.5]decan-1-one], the IC50 came to 220 nM.

Turning to `CC1CCCCN1C(=O)N1CCC2(CC1)CCN(c1ccc(OC(F)(F)F)cc1)C2=O` (centres unmarked) [Example 272, 8-(2-Methyl-piperidine-1-carbonyl)-2-(4-trifluoromethoxy-phenyl)-2,8-diaza-spiro[4.5]decan-1-one], the IC50 amounted to 100 nM.

Take `CCCCCN(C)C(=O)N1CCC2(CC1)CCN(c1ccc(OC(F)(F)F)cc1)C2=O` [Example 273, 1-Oxo-2-(4-trifluoromethoxy-phenyl)-2,8-diaza-spiro[4.5]decane-8-carboxylic acid methyl-pentyl-amide]: the IC50 is 80 nM.

Turning to `CCN(CCOC)C(=O)N1CCC2(CC1)CCN(c1ccc(OC(F)(F)F)cc1)C2=O` [Example 274, 1-Oxo-2-(4-trifluoromethoxy-phenyl)-2,8-diaza-spiro[4.5]decane-8-carboxylic acid ethyl-(2-methoxy-ethyl)-amide], the concentration for half-maximal inhibition (IC50) came out at 140 nM.

Take `CN(C(=O)N1CCC2(CC1)CCN(c1ccc(OC(F)(F)F)cc1)C2=O)c1ccccc1` [Example 275, 1-Oxo-2-(4-trifluoromethoxy-phenyl)-2,8-diaza-spiro[4.5]decane-8-carboxylic acid methyl-phenyl-amide]: the IC50 is 60 nM.

In the case of `CN(C(=O)N1CCC2(CC1)CCN(c1ccc(OC(F)(F)F)cc1)C2=O)C1CCCCC1` [Example 276, 1-Oxo-2-(4-trifluoromethoxy-phenyl)-2,8-diaza-spiro[4.5]decane-8-carboxylic acid cyclohexyl-methyl-amide], the 50% inhibitory concentration (IC50) was 70 nM.
